Values of other authors as cited in patent US20070112050A1, “HMGCoA reductase inhibitor combinations and uses thereof” (pSivida Inc., priority 2005, published 2007).
Like-named read-outs stand apart in the source and are kept apart here. Values belong to the compound of their own block, whether it stands above or below them.

Columns and labels:
[1] = system: low density lipoprotein cholesterol (LDL); conditions: ezetimibe administered alone
HMGCoA reductase (HMGR) = biological target: T1, HMGCoA reductase (HMGR) (Homo sapiens, UniProt P04035); conditions: substrate of HMGCoA reductase; read-out: Michaelis constant, Km
T1 sequence (P04035 1-888): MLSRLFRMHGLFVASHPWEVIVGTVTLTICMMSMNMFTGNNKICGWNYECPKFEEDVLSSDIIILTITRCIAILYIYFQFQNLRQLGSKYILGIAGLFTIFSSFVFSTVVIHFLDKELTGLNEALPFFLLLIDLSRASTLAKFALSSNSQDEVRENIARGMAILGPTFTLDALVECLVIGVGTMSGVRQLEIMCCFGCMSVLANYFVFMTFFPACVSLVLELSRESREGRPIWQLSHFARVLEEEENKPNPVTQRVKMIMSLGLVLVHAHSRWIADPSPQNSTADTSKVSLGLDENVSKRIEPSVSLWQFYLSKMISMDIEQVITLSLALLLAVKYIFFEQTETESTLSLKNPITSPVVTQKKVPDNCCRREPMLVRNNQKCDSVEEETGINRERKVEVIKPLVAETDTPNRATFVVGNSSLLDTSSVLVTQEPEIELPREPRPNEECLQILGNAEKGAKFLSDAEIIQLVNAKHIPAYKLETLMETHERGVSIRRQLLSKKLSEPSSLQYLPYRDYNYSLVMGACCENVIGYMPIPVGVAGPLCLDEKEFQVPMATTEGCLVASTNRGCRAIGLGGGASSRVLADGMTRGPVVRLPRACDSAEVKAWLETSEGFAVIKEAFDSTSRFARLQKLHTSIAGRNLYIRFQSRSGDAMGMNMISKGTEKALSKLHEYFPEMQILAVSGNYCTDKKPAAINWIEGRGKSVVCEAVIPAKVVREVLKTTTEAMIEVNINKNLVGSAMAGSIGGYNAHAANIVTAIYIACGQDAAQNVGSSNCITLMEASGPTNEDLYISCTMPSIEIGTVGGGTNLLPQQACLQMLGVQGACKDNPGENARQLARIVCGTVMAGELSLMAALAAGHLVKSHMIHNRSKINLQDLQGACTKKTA

Half-life (human body): 6 h
Structure (SMILES): CCCCC(=O)N(Cc1ccc(-c2ccccc2-c2nnn[nH]2)cc1)[C@H](C(=O)O)C(C)C [Valsartan, valsartan]

Half-life (human body): 5 h
Structure (SMILES): CCCCc1nc(Cl)c(CO)n1Cc1ccc(-c2ccccc2-c2nn[nH]n2)cc1 [Losartan, losartan]

Further lines, the compound ahead of its results:

Structure (SMILES): O=C1[C@H](CC[C@H](O)c2ccc(F)cc2)[C@@H](c2ccc(O)cc2)N1c1ccc(F)cc1 [ezetimibe]
reduction of LDL [1]: 17%

Structure (SMILES): CC(C)(COP(=O)(O)OP(=O)(O)OC[C@H]1O[C@@H](n2cnc3c(N)ncnc32)[C@H](O)[C@@H]1OP(=O)(O)O)[C@@H](O)C(=O)NCCC(=O)NCCSC(=O)C[C@@](C)(O)CC(=O)O [HMGCoA, (S)-3-hydroxy-3-methylglutaryl-CoA]
Km (HMGCoA reductase (HMGR)): 4 µM

Structure (SMILES): CCOc1nc2cccc(C(=O)O)c2n1Cc1ccc(-c2ccccc2-c2nnn[nH]2)cc1 [Candesartan, candesartan]
Half-life (human, in vivo): 10 h
Active metabolite (in vivo): Yes
Major route of inactivation (in vivo): Liver and renal

Structure (SMILES): CCCCC1=NC2(CCCC2)C(=O)N1Cc1ccc(-c2ccccc2-c2nnn[nH]2)cc1 [Irbesartan, irbesartan]
Active metabolite (human body): No
Half-life (human body): 13 h
